Source: patent publication US20100120703A1, “COMPOSITIONS AND METHODS FOR TREATING CANCER” (priority 2007, published 2010)

Assays:
HepG2 cells = experiment: cDNA microarray, drug toxicity and metabolism genes; assay type: cell-based, human; settings: HepG2 cells before and after SIN treatment
Protocol: The advancement of nucleic acid array technology has made it possible to analyze the expression of multiple genes in a single experiment. The cDNA Microarray is used to characterize gene expression associated with a specific biological pathway in a more comprehensive and cost effective manner. The genes on the cDNA microarray membrane are targeted to the drug toxicity and metabolism pathways. It is a useful approach to study the biological activities of SIN.
HepG2 cells were treated and harvested as described in the foregoing examples. The cell pellet was dissolved in 500 μl TRIzol® reagent (Invitrogen, CA, USA). The whole solution was allowed to stand at room temperature for 5 minutes. The solution was centrifuged at 14,000 rpm for 10 minutes at 4° C. The supernatant was collected in a new tube with 100 μl chloroform. After shaking and incubation for 10 minutes at room temperature, the solution was centrifuged at 14,000 rpm for 15 minutes at 4° C. Recentrifugation was necessary if the layer was not clear. The upper aqueous layer was carefully transferred into a new tube with 250 μl isopropanol. After shaking, the tube was allowed to stand at room temperature for 10 minutes for RNA precipitation. […]
cRNA purification was performed with SuperArray Array Grade cRNA Cleanup Kit. […] The quality and quantity of the cRNA product were determined as described previously. […]

Sprague Dawley (SD) rats = experiment: Serum AST/ALT assay, promotion stage; assay type: in vivo, rat; settings: promotion stage (FIG. 10), 15 mg/kg oral daily
Text: In the promotion stage experiment, rats in the negative control group received weekly intraperitoneal (i.p.) injection of DMSO for the first 2 weeks and then Corn Oil for the rest of the schedule. Rats in the positive control and SIN-treatment groups both received weekly intraperitoneal (i.p.) injection of the carcinogen DEN for the first 2 weeks and then promoter, Carbon Tetrachloride (CCl4) for the rest of the schedule. Two weeks of fasting were inserted between the initiator carcinogen treatment and the promoter CCl4 treatment. During the fasting period of 2 weeks, rats were fasted for 5 days, followed by a 2 day feeding, and another 5 days of fasting. Water was given ad libitum. Negative and positive control groups received oral treatment of water once a day after fasting. Sinigrin with dosage 15 mg/kg was administered orally to the treatment group daily for 28 weeks after fasting. […]
The serum AST activity assay was measured by a Stanbio AST (UV-Rate) kit. […] Absorbance was measured at OD 340 nm. After incubation for 1 minute, a reading was taken and the reading at this point was counted as time zero. Readings were then taken at 30 second interval for 3 minutes. The change of absorbance per minute was calculated and the AST activity was calculated by the formula
The ALT assay was measured by a Stanbio […]. […]

Structure (SMILES): C=CC/C(=N/OS(=O)(=O)[O-])S[C@@H]1OC(CO)[C@@H](O)C(O)C1O.[K+] (stereo partly drawn) [SIN, sinigrin]
- gene expression in drug toxicity and metabolism pathways (HepG2 cells): many genes in drug toxicity and metabolism pathways were differentially expressed
- rat serum ALT level (Sprague Dawley (SD) rats): levels similar to those in the negative control
- rat serum AST level (Sprague Dawley (SD) rats): levels similar to those in the negative control
